# Where two headings read alike, the source gives them in different places.
# What was measured:
# [1] = In vitro plasma stability, CD-1 mouse plasma; conditions: male, CD-1, mouse, plasma, Plasma stability % Remaining, Mouse, 37 °C, time point 120 min
# [2] = In vitro plasma stability, cynomolgus monkey plasma; conditions: monkey, plasma
# [3] = system: wild-type Mtb H37Rv; format: in vivo, 129sv DHP-1 knockout mice; conditions: for Log10 CFU per mouse (lungs), Mean: days 9-15, lungs day 16, untreated day 16 mean 9.1
# [4] = female, 129sv DHP-1 knockout, mouse, in vivo
# [5] = Stability in simulated gastric fluid (SGF); conditions: simulated gastric fluid (SGF), pH 1.2
# [6] = In vitro plasma stability, beagle dog plasma; conditions: beagle, dog, plasma
# [7] = In vitro plasma stability, human plasma; conditions: human, plasma, Plasma stability % Remaining, 37 °C, time point 120 min
# [8] = Stability in fasted simulated intestinal fluid (FaSSIF); conditions: fasted simulated intestinal fluid (FaSSIF), pH 6.5, FaSSIF Stability, % remaining, pH 6.5, room temperature
# [9] = in vivo; conditions: female, 129sv DHP-1 knockout, mouse, sc
# [10] = Caco-2 permeability / efflux transporter substrate; conditions: human
# [11] = system: Caco-2 cells; assay: Caco-2 permeability / efflux transporter substrate; conditions: Caco-2
# [12] = system: Mtb ΔpanCDΔlysA; format: cell-based, Mycobacterium tuberculosis; conditions: MIC90 in presence vs absence of 4 μg/mL clavulanate, replicating Mtb
# [13] = In vitro plasma stability, SD rat plasma; conditions: SD, rat, plasma, Plasma stability % Remaining, 37 °C, time point 120 min
# [14] = system: HepG2 cells; assay: Cytotoxicity against HepG2 cells (CellTiter-Glo); format: cell-based, human; conditions: Table S4
# Protocol: Compounds were tested for cytotoxicity against HepG2 cells as previously described.[48],[69],[70] Briefly, cells were exposed to compounds for 48–72 h, and viability was measured using CellTiter-Glo (Promega).
# [15] = 300 mg/kg sc, uninfected DHP-1 mice
# [16] = in vitro; conditions: human, plasma, Plasma stability % Remaining
# [17] = in vitro; conditions: cynomolgus monkey, plasma, pH 7.4
# [18] = system: Caco-2 cells
# [19] = system: E. coli; assay: Microbial spectrum, E. coli; format: cell-based, Escherichia coli; conditions: clavulanate 4 μg/mL; Table S4
# [20] = system: C. albicans; assay: Microbial spectrum, C. albicans; format: cell-based, Candida albicans; conditions: no clavulanate; Table S4
# [21] = in vitro; conditions: human
# [22] = system: S. aureus; assay: Microbial spectrum, S. aureus; format: cell-based, Staphylococcus aureus; conditions: clavulanate 4 μg/mL; Table S4
# [23] = in vivo; conditions: female, CD-1, mouse
# [24] = in vitro; conditions: human, plasma, pH 7.4, % bound to plasma
# [25] = in vitro; conditions: monkey, plasma
# [26] = in vitro; conditions: SD, rat, plasma, Plasma stability % Remaining
# [27] = in vitro; conditions: SD, rat, plasma, pH 7.4, % bound to plasma
# [28] = in vitro; conditions: male, CD-1, mouse, plasma, Plasma stability % Remaining
# [29] = in vitro; conditions: CD-1, mouse, plasma, pH 7.4, % bound to plasma
# [30] = system: P. aeruginosa; assay: Microbial spectrum, P. aeruginosa; format: cell-based, Pseudomonas aeruginosa; conditions: clavulanate 4 μg/mL; Table S4
# [31] = system: Mtb H37Rv; assay: MIC90 against nonreplicating (NR, 4-stress) Mtb H37Rv, with or without clavulanate; format: cell-based, Mycobacterium tuberculosis; conditions: 4-stress nonreplicating, Table S4
# [32] = in vitro; conditions: beagle, dog, plasma
# [33] = system: Mtb H37Rv; assay: MIC90 against replicating (R) Mtb H37Rv, with or without clavulanate; format: cell-based, Mycobacterium tuberculosis; conditions: Table S4
# [34] = in vivo; conditions: DHP-1 knockout, mouse, sc, 300 mg/kg
# [35] = physchem; conditions: simulated gi fluid, pH 1.2
# [36] = in vitro; conditions: beagle, dog, plasma, pH 7.4
# [37] = physchem; conditions: simulated gi fluid, pH 6.5, FaSSIF Stability, % remaining
# [38] = 50 mg/kg sc bid + clavulanate 100 mg/kg po bid
# [39] = Caco-2, pH 7.4, Caco-2 Mean Recovery % A to B
# [40] = Caco-2, pH 7.4, Caco-2 Mean Recovery % B to A
structure (smiles),measurement,setting,value
"C[C@@H](O)[C@H]1C(=O)N2C(C(=O)O)=C(S[C@@H]3CN[C@H](C(=O)N(C)C)C3)[C@H](C)[C@H]12 [Meropenem, reference compound]","remaining at 2 h, 2 μM",[1],74.7%
same,"remaining at 2 h, 2 μM",[2],99.9%
same,"Log10 CFU per mouse (lungs), Mean",[3]; [38],7.6 Log10 CFU
same,"Log10 CFU per mouse (lungs), Mean",[3]; 300 mg/kg sc bid + clavulanate 100 mg/kg po bid,7.1 Log10 CFU
same,effect on lung CFU (in words),"[3]; mouse, in vivo",bacteriostatic impact
same,Tlast,[4],1.0 h
same,"remaining at 1 h, 10 μM",[5],111%
same,"remaining at 24 h, 10 μM",[5],100%
same,"remaining at 2 h, 2 μM",[6],75.2%
same,"remaining at 2 h, 2 μM",[7],70.6%
same,"remaining at 6 h, 10 μM",[8]; 6h,94.1%
same,"remaining at 24 h, 10 μM",[8]; 24h,76.8%
same,AUC(0-t),[9]; 50 mg/kg,387 ng·h/mL
same,Cmax,[9]; 50 mg/kg,724 ng/mL
same,Tmax,[9]; 50 mg/kg,30 min
same,AUC(0-t),[9]; 300 mg/kg,2000 ng·h/mL
same,Cmax,[9]; 300 mg/kg,3340 ng/mL
same,Tmax,[9]; 300 mg/kg,30 min
same,"Papp A→B at 120 min, 3 μM","[10]; Caco-2, pH 7.4",< 0.26 ×10⁻⁶ cm/s
same,"Papp B→A at 120 min, 3 μM","[10]; Caco-2, pH 7.4",< 0.24 ×10⁻⁶ cm/s
same,"recovery at 120 min, 3 μM",[10]; [39],< 91%
same,"recovery at 120 min, 3 μM",[10]; [40],< 94.2%
same,Caco-2 Rank Papp,[11],Low
same,clavulanate shift of MIC90,[12],~8 fold
same,"remaining at 2 h, 2 μM",[13],57.7%
CN(C)C(=S)SCC1=C(C(=O)O)N2C(=O)[C@@H](NC(=O)Cc3cccs3)[C@H]2SC1 [TBBL-0000009],HepG2 LD50,[14],6.6 µM
same,Tlast,[15],4.0 h
same,"remaining at 2 h, 2 μM",[16],97.9%
same,"fraction unbound at 4 h, 2 μM",[17],0.047
same,Caco-2 Rank Papp,[18],Moderate
same,E.coli R + CLAV (MIC90),[19],> 100 µM
same,C.albicans R (MIC90),[20],> 100 µM
same,"Papp A→B at 120 min, 3 μM","[21]; Caco-2, pH 7.4",< 0.5 ×10⁻⁶ cm/s
same,"Papp B→A at 120 min, 3 μM","[21]; Caco-2, pH 7.4",< 0.43 ×10⁻⁶ cm/s
same,"recovery at 120 min, 3 μM",[21]; [39],< 98.3%
same,"recovery at 120 min, 3 μM",[21]; [40],< 103%
same,"Log10 CFU per mouse (lungs), Mean",[3]; [38],8.7 Log10 CFU
same,reduction of lung CFU compared to untreated control mice,"[3]; mouse, in vivo",~0.4 log10
same,S.aureus R + CLAV (MIC90),[22],1 µM
same,AUC(0-t),"[23]; iv, 5 mg/kg",20300 ng·h/mL
same,Vd,"[23]; iv, 5 mg/kg",0.18 L/kg
same,clearance,"[23]; iv, 5 mg/kg",4.25 mL/min/kg
same,half-life,"[23]; iv, 5 mg/kg",30 min
same,k el,"[23]; iv, 5 mg/kg",0.000389 s⁻¹
same,AUC(0-t),"[23]; po, 25 mg/kg",1360 ng·h/mL
same,bioavailability,"[23]; po, 25 mg/kg",1.33%
same,Tlast,[4],6.0 h
same,"fraction unbound at 4 h, 2 μM",[24],0.034
same,"remaining at 2 h, 2 μM",[25],133%
same,"remaining at 2 h, 2 μM",[26],95.8%
same,"fraction unbound at 4 h, 2 μM",[27],0.022
same,"remaining at 2 h, 2 μM",[28],93%
same,"fraction unbound at 4 h, 2 μM",[29],0.095
same,P.aeruginosa R + CLAV (MIC90),[30],> 100 µM
same,Mtb H37Rv NR + CLAV (MIC90),[31]; clavulanate 4 μg/mL,> 100 µM
same,Mtb H37Rv NR (MIC90),[31]; no clavulanate,> 100 µM
same,"remaining at 2 h, 2 μM",[32],104%
same,AUC(0-t),[9]; 50 mg/kg,975 ng·h/mL
same,Cmax,[9]; 50 mg/kg,380 ng/mL
same,Tmax,[9]; 50 mg/kg,30 min
same,Mtb H37Rv R + CLAV (MIC90),[33]; clavulanate 4 μg/mL,4 µM
same,Mtb H37Rv R (MIC90),[33]; no clavulanate,8 µM
same,AUC(0-t),[34],8810 ± 675 ng·h/mL
same,Cmax,[34],2650 ± 266 ng/mL
same,Tmax,[34],120 to 240 min
same,"remaining at 1 h, 10 μM",[35],31.7%
same,"remaining at 24 h, 10 μM",[35],9.96%
same,"fraction unbound at 4 h, 2 μM",[36],0.084
same,"remaining at 6 h, 10 μM",[37]; 6h,85.3%
same,"remaining at 24 h, 10 μM",[37]; 24h,90.9%

# Source: paper PMC8922279, “Identification of β-Lactams Active against Mycobacterium tuberculosis by a Consortium of Pharmaceutical Companies and Academic Institutions” (ACS Infectious Diseases, 2022)
